# Measurements published in ChEMBL document CHEMBL1144933, “Novel bioactive and stable neurotensin peptide analogues capable of delivering radiopharmaceuticals and molecular beacons to tumors” (J Med Chem, 2003).
# *1 amine or outer side, *2 acyl side, *3 side chain or, on linkers, in order; H or OH if unused. Where a SMILES comes first, the peptide text is derived from it. [ ]: non-standard residue; d: D form. The star is where a group is joined. Abu(1-amidino-4-piperidyl) = N=C(N)N1CCC(CC[C@H](N)C(=O)O)CC1; Gly(1-amidinopiperidin-4-yl) = N=C(N)N1CCC([C@H](N)C(=O)O)CC1; Ala(1-amidino-4-piperidyl) = N=C(N)N1CCC(C[C@H](N)C(=O)O)CC1; FITC = O=C1OC2(c3ccc(O)cc3Oc3cc(O)ccc32)c2ccc(NC(=S)*)cc21; DTPA = O=C(O)CN(CCN(CC(=O)O)CC(=O)O)CCN(CC(=O)O)CC(=O)*; Phe(4-guanidino) = N=C(N)Nc1ccc(C[C@H](N)C(=O)O)cc1; Gly(piperidin-4-yl) = N[C@H](C(=O)O)C1CCNCC1; X1 = NCC1CCC(C[C@H](N[*:1])C(=O)[*:2])CC1; Tle = CC(C)(C)[C@H](N)C(=O)O
# Target: Neurotensin receptor type 1 (Homo sapiens, UniProt P30989)
# Assay: Binding affinity towards neurotensin receptor in membranes prepared from HT-29 cell line, relative to [111In]-labeled neurotensin peptide
# Settings: not given
# Sequence of Neurotensin receptor type 1 (P30989 whole entry): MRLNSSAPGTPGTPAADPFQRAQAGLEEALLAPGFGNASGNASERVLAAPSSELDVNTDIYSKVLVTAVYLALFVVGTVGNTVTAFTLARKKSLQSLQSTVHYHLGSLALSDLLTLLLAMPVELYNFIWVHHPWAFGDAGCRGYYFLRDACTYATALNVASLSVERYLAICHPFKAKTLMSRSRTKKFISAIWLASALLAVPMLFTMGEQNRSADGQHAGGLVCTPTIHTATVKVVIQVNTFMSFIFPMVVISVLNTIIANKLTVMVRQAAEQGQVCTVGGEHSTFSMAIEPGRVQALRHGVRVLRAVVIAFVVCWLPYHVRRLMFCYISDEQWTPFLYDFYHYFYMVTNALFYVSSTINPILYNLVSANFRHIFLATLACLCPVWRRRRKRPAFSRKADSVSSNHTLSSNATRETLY
row,Structure (SMILES),IC50
1,CC(C)(C)[C@H](NC(=O)[C@H](Cc1ccc(O)cc1)NC(=O)[C@@H]1CCCN1C(=O)[C@H](CCCNC(=N)N)NC(=O)[C@@H](NC(=O)[C@@H]1CCCN1C(=O)[C@@H](CCCCN)NC(=O)CN(CCN(CCN(CC(=O)O)CC(=O)O)CC(=O)O)CC(=O)O)C1CCN(C(=N)N)CC1)C(=O)N[C@@H](CC1CCCC1)C(=O)O,42.4 nM
2,CC(C)C[C@H](NC(=O)[C@@H](NC(=O)[C@H](Cc1ccc(O)cc1)NC(=O)[C@@H]1CCN1C(=O)[C@H](CCCN=C(N)N)NC(=O)[C@@H](NC(=O)[C@H](CCCN=C(N)N)NC(=O)[C@@H]1CCCN1C(=O)[C@@H](CCCCN)NC(=O)CN(CCN(CCN(CC(=O)O)CC(=O)O)CC(=O)O)CC(=O)O)C1CCN(C(=N)N)CC1)C(C)(C)C)C(=O)O,113 nM
3,CC(C)C[C@H](NC(=O)[C@@H](NC(=O)[C@H](Cc1ccc(O)cc1)NC(=O)[C@@H]1CCCN1C(=O)[C@H](CCCNC(=N)N)NC(=O)[C@@H](NC(=O)[C@H](CCCN=C(N)N)NC(=O)[C@@H]1CCN1C(=O)[C@@H](CCCCN)NC(=O)CN(CCN(CCN(CC(=O)O)CC(=O)O)CC(=O)O)CC(=O)O)C1CCN(C(=N)N)CC1)C(C)(C)C)C(=O)O,11.5 nM
4,CC(C)(C)C[C@H](NC(=O)[C@@H](NC(=O)[C@H](Cc1ccc(O)cc1)NC(=O)[C@@H]1CCCN1C(=O)[C@H](CCCNC(=N)N)NC(=O)[C@@H](NC(=O)[C@@H]1CCCN1C(=O)[C@H](CCCCN)NC(=O)[C@H](CC(N)=O)NC(=O)[C@H](CCC(=O)O)NC(=O)[C@@H](Cc1ccc(O)cc1)NC(=O)CN(CCN(CCN(CC(=O)O)CC(=O)O)CC(=O)O)CC(=O)O)C1CCN(C(=N)N)CC1)C(C)(C)C)C(=O)O,0.4 nM
5,CC(C)C[C@H](NC(=O)[C@@H](NC(=O)[C@H](Cc1ccc(O)cc1)NC(=O)[C@@H]1CCCN1C(=O)[C@H](CCCN=C(N)N)NC(=O)[C@@H](NC(=O)[C@@H]1CCCN1C(=O)[C@H](CC1CCC(CN)CC1)NC(=O)CN(CCN(CCN(CC(=O)O)CC(=O)O)CC(=O)O)CC(=O)O)C1CCN(C(=N)N)CC1)C(C)(C)C)C(=O)O (stereo partly drawn) ({DTPA}-[X1]P[Gly(1-amidinopiperidin-4-yl)]RPY[Tle]L-OH),0.3 nM
6,CC(C)(C)[C@H](NC(=O)[C@H](Cc1ccc(O)cc1)NC(=O)[C@@H]1CCCN1C(=O)[C@H](CCCN=C(N)N)NC(=O)[C@@H](NC(=O)[C@@H]1CCCN1C(=O)[C@H](CCCCN)NC(=O)[C@H](CC(N)=O)NC(=O)[C@H](CCC(=O)O)NC(=O)[C@@H](Cc1ccc(O)cc1)NC(=O)CN(CCN(CCN(CC(=O)O)CC(=O)O)CC(=O)O)CC(=O)O)C1CCN(C(=N)N)CC1)C(=O)N[C@@H](CC1CCCCC1)C(=O)O,0.6 nM
7,CC(C)(C)[C@H](NC(=O)[C@H](Cc1ccc(O)cc1)NC(=O)[C@@H]1CCCN1C(=O)[C@H](CCCN=C(N)N)NC(=O)[C@@H](NC(=O)[C@@H]1CCCN1C(=O)[C@@H](CCCCN)NC(=O)CN(CCN(CCN(CC(=O)O)CC(=O)O)CC(=O)O)CC(=O)O)C1CCN(C(=N)N)CC1)C(=O)N[C@@H](CC1CCCCC1)C(=O)O,11.7 nM
8,CC(C)C[C@H](NC(=O)[C@@H](NC(=O)[C@H](Cc1ccc(O)cc1)NC(=O)[C@@H]1CCCN1C(=O)[C@H](CCCNC(=N)N)NC(=O)[C@H](CCC1CCN(C(=N)N)CC1)NC(=O)[C@@H]1CCCN1C(=O)[C@@H](CCCCN)NC(=O)CN(CCN(CCN(CC(=O)O)CC(=O)O)CC(=O)O)CC(=O)O)C(C)(C)C)C(=O)O ({DTPA}-[dK]P[Abu(1-amidino-4-piperidyl)]RPY[Tle]L-OH),6.3 nM
9,CC(C)C[C@H](NC(=O)[C@@H](NC(=O)[C@H](Cc1ccc(O)cc1)NC(=O)[C@@H]1CCCN1C(=O)[C@H](CCCN=C(N)N)NC(=O)[C@@H](NC(=O)[C@@H]1CCCN1C(=O)[C@H](CCCCN)NC(=O)[C@H](CC(N)=O)NC(=O)[C@H](CCC(=O)O)NC(=O)[C@@H](Cc1ccc(O)cc1)NC(=O)CN(CCN(CCN(CC(=O)O)CC(=O)O)CC(=O)O)CC(=O)O)C1CCN(C(=N)N)CC1)C(C)(C)C)C(=O)O,1.5 nM
10,CC(C)C[C@H](NC(=O)[C@@H](NC(=O)[C@H](Cc1ccc(O)cc1)NC(=O)[C@@H]1CCCN1C(=O)[C@H](CCCNC(=N)N)NC(=O)[C@H](CC1CCN(C(=N)N)CC1)NC(=O)[C@@H]1CCCN1C(=O)[C@@H](CCCCN)NC(=O)CN(CCN(CCN(CC(=O)O)CC(=O)O)CC(=O)O)CC(=O)O)C(C)(C)C)C(=O)O ({DTPA}-[dK]P[Ala(1-amidino-4-piperidyl)]RPY[Tle]L-OH),2.5 nM
11,CC(C)C[C@H](NC(=O)[C@@H](NC(=O)[C@H](Cc1ccc(O)cc1)NC(=O)[C@@H]1CCCN1C(=O)[C@H](CCCN=C(N)N)NC(=O)[C@H](Cc1ccc(NC(=N)N)cc1)NC(=O)[C@@H]1CCCN1C(=O)[C@@H](CCCCN)NC(=O)CN(CCN(CCN(CC(=O)O)CC(=O)O)CC(=O)O)CC(=O)O)C(C)(C)C)C(=O)O ({DTPA}-[dK]P[Phe(4-guanidino)]RPY[Tle]L-OH),24.6 nM
12,CC[C@H](C)[C@H](NC(=O)[C@H](Cc1ccc(O)cc1)NC(=O)[C@@H]1CCCN1C(=O)[C@H](Cc1ccc(N=C(N)N)cc1)NC(=O)[C@H](CCCNC(=N)N)NC(=O)[C@@H]1CCCN1C(=O)[C@@H](CCCCN)NC(=O)CN(CCN(CCN(CC(=O)O)CC(=O)O)CC(=O)O)CC(=O)O)C(=O)N[C@@H](CC(C)C)C(=O)O,0.4 nM
13,CC[C@H](C)[C@H](NC(=O)[C@H](Cc1ccc(O)cc1)NC(=O)[C@@H]1CCCN1C(=O)[C@H](Cc1ccc(NC(=N)N)cc1)NC(=O)[C@H](Cc1ccc(NC(=N)N)cc1)NC(=O)[C@@H]1CCCN1C(=O)[C@@H](CCCCN)NC(=O)CN(CCN(CCN(CC(=O)O)CC(=O)O)CC(=O)O)CC(=O)O)C(=O)N[C@@H](CC(C)C)C(=O)O ({DTPA}-[dK]P[Phe(4-guanidino)][Phe(4-guanidino)]PYIL-OH),22.1 nM
14,CC[C@H](C)[C@H](NC(=O)[C@H](Cc1ccc(O)cc1)NC(=O)[C@@H]1CCCN1C(=O)[C@H](CCCN=C(N)N)NC(=O)[C@H](Cc1ccc(NC(=N)N)cc1)NC(=O)[C@@H]1CCCN1C(=O)[C@@H](CCCCN)NC(=O)CN(CCN(CCN(CC(=O)O)CC(=O)O)CC(=O)O)CC(=O)O)C(=O)N[C@@H](CC(C)C)C(=O)O,0.5 nM
15,CC(C)(C)C[C@H](NC(=O)[C@@H](NC(=O)[C@H](Cc1ccc(O)cc1)NC(=O)[C@@H]1CCCN1C(=O)[C@H](CCCN=C(N)N)NC(=O)[C@@H](NC(=O)[C@@H]1CCCN1C(=O)[C@@H](CCCCN)NC(=O)CN(CCN(CCN(CC(=O)O)CC(=O)O)CC(=O)O)CC(=O)O)C1CCN(C(=N)N)CC1)C(C)(C)C)C(=O)O,21.7 nM

# Same assay, conditions: ht-29
row,Structure (SMILES),IC50
1,CC(C)C[C@H](NC(=O)[C@@H](NC(=O)[C@H](Cc1ccc(O)cc1)NC(=O)[C@@H]1CCCN1C(=O)[C@H](CCCN=C(N)N)NC(=O)[C@@H](NC(=O)[C@@H]1CCCN1C(=O)[C@@H](NC(=S)Nc1ccc2c(c1)C(=O)OC21c2ccc(O)cc2Oc2cc(O)ccc21)C1CCNCC1)C1CCN(C(=N)N)CC1)C(C)(C)C)C(=O)O ({FITC}-[Gly(piperidin-4-yl)]P[Gly(1-amidinopiperidin-4-yl)]RPY[Tle]L-OH),0.5 nM
2,CC(C)C[C@H](NC(=O)[C@@H](NC(=O)[C@H](Cc1cccc(O)c1)NC(=O)[C@@H]1CCCN1C(=O)[C@H](CCCN=C(N)N)NC(=O)[C@@H](NC(=O)[C@@H]1CCCN1C(=O)[C@@H](CCCCN)NC(=O)CN(CCN(CCN(CC(=O)O)CC(=O)O)CC(=O)O)CC(=O)O)C1CCN(C(=N)N)CC1)C(C)(C)C)C(=O)O,106 nM
3,CC[C@H](C)[C@H](NC(=O)[C@H](Cc1ccc(O)cc1)NC(=O)[C@@H]1CCCN1C(=O)[C@H](CCCN=C(N)N)NC(=O)[C@@H](NC(=O)[C@@H]1CCCN1C(=O)[C@H](N)CCCCNC(=S)Nc1ccc2c(c1)C(=O)OC21c2ccc(O)cc2Oc2cc(O)ccc21)C1CCN(C(=N)N)CC1)C(=O)N[C@@H](CC(C)C)C(=O)O,0.6 nM
4,CC[C@H](C)[C@H](NC(=O)[C@H](Cc1ccc(O)cc1)NC(=O)[C@@H]1CCCN1C(=O)[C@H](CCCN=C(N)N)NC(=O)[C@H](CCc1ccnc(N)n1)NC(=O)[C@@H]1CCCN1C(=O)[C@@H](CCCCN)NC(=O)CN(CCN(CCN(CC(=O)O)CC(=O)O)CC(=O)O)CC(=O)O)C(=O)N[C@@H](CC(C)C)C(=O)O,10.2 nM
5,CC[C@H](C)[C@H](NC(=O)[C@H](Cc1ccc(O)cc1)NC(=O)[C@@H]1CCCN1C(=O)[C@H](CCCN=C(N)N)NC(=O)[C@@H](NC(=O)[C@@H]1CCCN1C(=O)[C@@H](CCCCNC(=S)Nc1ccc2c(c1)C(=O)OC21c2ccc(O)cc2Oc2cc(O)ccc21)NC(=S)Nc1ccc2c(c1)C(=O)OC21c2ccc(O)cc2Oc2cc(O)ccc21)C1CCN(C(=N)N)CC1)C(=O)N[C@@H](CC(C)C)C(=O)O,3.4 nM
6,CC(C)C[C@H](NC(=O)[C@@H](NC(=O)[C@H](Cc1ccc(O)cc1)NC(=O)[C@@H]1CCCN1C(=O)[C@H](CCCN=C(N)N)NC(=O)[C@@H](NC(=O)[C@@H]1CCCN1C(=O)[C@@H](CCCCN)NC(=O)CN(CCN(CCN(CC(=O)O)CC(=O)O)CC(=O)O)CC(=O)O)C1CCN(C(=N)N)CC1)C(C)(C)C)C(=O)O,0.4 nM
7,CC(C)C[C@H](NC(=O)[C@@H](NC(=O)[C@@H](Cc1ccc(O)cc1)NC(=O)[C@@H]1CCCN1C(=O)[C@H](CCCN=C(N)N)NC(=O)[C@@H](NC(=O)[C@@H]1CCCN1C(=O)[C@@H](CCCCN)NC(=O)CN(CCN(CCN(CC(=O)O)CC(=O)O)CC(=O)O)CC(=O)O)C1CCN(C(=N)N)CC1)C(C)(C)C)C(=O)O,0.6 nM
8,CC(C)C[C@H](NC(=O)[C@@H](NC(=O)[C@H](Cc1ccc(O)cc1)NC(=O)[C@@H]1CCCN1C(=O)[C@H](CCCNC(=N)N)NC(=O)[C@@H](NC(=O)[C@@H]1CCCN1C(=O)[C@H](CC1CCN(C(=N)N)CC1)NC(=O)CN(CCN(CCN(CC(=O)O)CC(=O)O)CC(=O)O)CC(=O)O)C1CCN(C(=N)N)CC1)C(C)(C)C)C(=O)O ({DTPA}-[Ala(1-amidino-4-piperidyl)]P[Gly(1-amidinopiperidin-4-yl)]RPY[Tle]L-OH),> 1000 nM
9,CC(C)C[C@H](NC(=O)[C@@H](NC(=O)[C@H](Cc1ccc(O)cc1)NC(=O)[C@@H]1CCCN1C(=O)[C@@H](NC(=O)[C@@H](NC(=O)[C@@H]1CCCN1C(=O)[C@@H](CCCCN)NC(=O)CN(CCN(CCN(CC(=O)O)CC(=O)O)CC(=O)O)CC(=O)O)C1CCN(C(=N)N)CC1)C1CCNCC1)C(C)(C)C)C(=O)O,59.6 nM
10,CC[C@H](C)[C@H](NC(=O)[C@H](Cc1ccc(O)cc1)NC(=O)[C@@H]1CCCN1C(=O)[C@H](CCCNC(=N)N)NC(=O)[C@@H](NC(=O)[C@@H]1CCCN1C(=O)[C@@H](CCCCN)NC(=S)Nc1ccc2c(c1)C(=O)OC21c2ccc(O)cc2Oc2cc(O)ccc21)C1CCN(C(=N)N)CC1)C(=O)N[C@@H](CC(C)C)C(=O)O,1.2 nM
